The structures appear in SMILES notation.

Chain of human Edg-2 receptor (Q92633 whole entry): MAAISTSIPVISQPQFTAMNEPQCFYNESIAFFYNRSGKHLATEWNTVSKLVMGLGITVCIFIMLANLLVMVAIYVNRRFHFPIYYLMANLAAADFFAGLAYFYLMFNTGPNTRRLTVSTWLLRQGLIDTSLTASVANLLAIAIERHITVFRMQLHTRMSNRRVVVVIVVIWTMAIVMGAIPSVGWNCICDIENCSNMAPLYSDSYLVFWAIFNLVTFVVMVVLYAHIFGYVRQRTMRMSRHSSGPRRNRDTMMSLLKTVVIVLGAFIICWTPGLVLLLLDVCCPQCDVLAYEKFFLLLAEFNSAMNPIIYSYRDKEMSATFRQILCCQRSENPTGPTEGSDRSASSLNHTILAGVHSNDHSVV

The experiment concerns the target human Edg-2 receptor (Homo sapiens, UniProt Q92633). Nature of the experiment: Determination of Edg-2 receptor inhibition by FLIPR measurements (LPA-mediated calcium liberation). In kind it is cell-based. Particulars: CHO cells overexpressing human Edg-2 receptor, LPA 100 nM, fluo-4 calcium fluorescence; read-out: Inhibitory concentrations IC50 for inhibition of the Edg-2 receptor. In outline: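 CHO cells stably overexpressing human Edg-2, loaded with fluo-4 AM, were pre-incubated ~5 min with compound (≤0.3% DMSO), then stimulated with 100 nM LPA 18:1 in HBSS/HEPES/probenecid, pH 7.5. Peak calcium fluorescence over ~3 min, baseline-corrected, versus DMSO gave % inhibition; IC50 from triplicates.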
On to `CC[C@H]1CC[C@](NC(=O)c2ccc(CO)c(-c3cccc(C(F)(F)F)c3)c2)(C(=O)O)CC1` [Example 430, cis-4-Ethyl-1-[(6-hydroxymethyl-3′-trifluoromethyl-biphenyl-3-carbonyl)-amino]-cyclohexanecarboxylic acid], for which the IC50 is 100 to 1000 nM. For the compound `CC[C@H]1CC[C@@](NC(=O)c2ccc(CO)c(-c3cccc(C(F)(F)F)c3)c2)(C(=O)O)CC1` [Example 431, trans-4-Ethyl-1-[(6-hydroxymethyl-3′-trifluoromethyl-biphenyl-3-carbonyl)-amino]-cyclohexanecarboxylic acid], the IC50 fell in the range of 100 to 1000 nM. With `CC[C@H]1CC[C@](NC(=O)c2ccc(CCCO)c(-c3cccc(C(F)(F)F)c3)c2)(C(=O)O)CC1` [Example 433, cis-4-Ethyl-1-{[6-(3-hydroxy-propyl)-3′-trifluoromethyl-biphenyl-3-carbonyl]-amino}-cyclohexanecarboxylic acid] the figure was under 100 nM. With `C[C@H]1CC[C@](NC(=O)c2ccc(CCCO)c(-c3cccc(C(F)(F)F)c3)c2)(C(=O)O)CC1` [Example 434, cis-1-{[6-(3-Hydroxy-propyl)-3′-trifluoromethyl-biphenyl-3-carbonyl]-amino}-4-methyl-cyclohexanecarboxylic acid] the figure was 100 to 1000 nM; with `CCc1ncc(C(=O)N[C@]2(C(=O)O)CC[C@H](C)CC2)cc1OCCc1cccc(Cl)c1` [Example 435, cis-1-({5-[2-(3-Chloro-phenyl)-ethoxy]-6-ethyl-pyridine-3-carbonyl}-amino)-4-methyl-cyclohexanecarboxylic acid], 100 to 1000 nM; with `CCc1ncc(C(=O)N[C@]2(C(=O)O)CC[C@@H](C)CC2)cc1OCCc1cccc(Cl)c1` [Example 436, trans-1-({5-[2-(3-Chloro-phenyl)-ethoxy]-6-ethyl-pyridine-3-carbonyl}-amino)-4-methyl-cyclohexanecarboxylic acid], 100 to 1000 nM. As for `CCc1ncc(C(=O)N[C@]2(C(=O)O)CC[C@H](CC)CC2)cc1OCCc1cccc(Cl)c1` [Example 437, cis-1-({5-[2-(3-Chloro-phenyl)-ethoxy]-6-ethyl-pyridine-3-carbonyl}-amino)-4-ethyl-cyclohexanecarboxylic acid], the IC50 is under 100 nM. Consider `CCc1ncc(C(=O)N[C@]2(C(=O)O)CC[C@@H](CC)CC2)cc1OCCc1cccc(Cl)c1` [Example 438, trans-1-({5-[2-(3-Chloro-phenyl)-ethoxy]-6-ethyl-pyridine-3-carbonyl}-amino)-4-ethyl-cyclohexanecarboxylic acid], for which the IC50 was under 100 nM. With `CC[C@H]1CC[C@@](NC(=O)c2cc(OCCc3cccc(Cl)c3)c(C(C)=O)s2)(C(=O)O)CC1` [Example 439, trans-1-({5-Acetyl-4-[2-(3-chloro-phenyl)-ethoxy]-thiophene-2-carbonyl}-amino)-4-ethyl-cyclohexanecarboxylic acid] the figure was 100 to 1000 nM; with `CCc1sc(C(=O)N[C@]2(C(=O)O)CC[C@@H](CC)CC2)cc1OCCc1cccc(Cl)c1` [Example 440, trans-1-({4-[2-(3-Chloro-phenyl)-ethoxy]-5-ethyl-thiophene-2-carbonyl}-amino)-4-ethyl-cyclohexanecarboxylic acid], 100 to 1000 nM; with `CC[C@H]1CC[C@](C(=O)O)(N(C)C(=O)c2ccc(OC)c(OCCc3cccc(C)c3)c2)CC1` [Example 441, trans-4-Ethyl-1-{[4-methoxy-3-(2-m-tolyl-ethoxy)-benzoyl]-methyl-amino}-cyclohexanecarboxylic acid], 1000 to 30000 nM. As for `Cc1cccc(CCOc2ccc(C(=O)N[C@]3(C(=O)O)CC[C@@H](C)CC3)cc2C(O)C(F)(F)F)c1` (stereo partly drawn) [Example 442, (R,S)-trans-4-Methyl-1-[4-(2-m-tolyl-ethoxy)-3-(2,2,2-trifluoro-1-hydroxy-ethyl)-benzoylamino]-cyclohexanecarboxylic acid], the figure is under 100 nM.

Turning to `COc1ccc(-c2cc(C(=O)N[C@]3(C(=O)O)CC[C@@H](C)CC3)ccc2OC2CC(F)(F)C2)cc1Cl` [Example 443, Trans-1-{[3′-Chloro-6-(3,3-difluoro-cyclobutoxy)-4′-methoxy-biphenyl-3-carbonyl]-amino}-4-methyl-cyclohexanecarboxylic acid], the IC50 was in the range of 100 to 1000 nM. As for `COc1cc(F)c(-c2cc(C(=O)N[C@]3(C(=O)O)CC[C@@H](C)CC3)ccc2C(F)(F)F)c(F)c1` [Example 444, 1-[(2′,6′-Difluoro-4′-methoxy-6-trifluoromethyl-biphenyl-3-carbonyl)-amino]-4-methyl-cyclohexanecarboxylic acid], the figure is 100 to 1000 nM. Consider `COc1ccc(C(=O)N[C@]2(C(=O)O)CC[C@@H](C)CC2)cc1-c1c(F)cc(OC)c(Cl)c1F` [Example 445, 1-[(3′-Chloro-2′,6′-difluoro-6,4′-dimethoxy-biphenyl-3-carbonyl)-amino]-4-methyl-cyclohexanecarboxylic acid], for which the IC50 was under 100 nM. In the case of `COc1ccc(-c2cc(C(=O)N[C@]3(C(=O)O)CC[C@@H](C)CC3)cc(F)c2OC)cc1Cl` [Example 446, Trans-1-[(3′-Chloro-5-fluoro-6,4′-dimethoxy-biphenyl-3-carbonyl)-amino]-4-methyl-cyclohexanecarboxylic acid], the IC50 was under 100 nM. As for `CC[C@H]1CC[C@](NC(=O)c2cc(F)c(OC)c(-c3ccc(OC)c(Cl)c3)c2)(C(=O)O)CC1` [Example 447, Cis-1-[(3′-chloro-5-fluoro-6,4′-dimethoxy-biphenyl-3-carbonyl)-amino]-4-ethyl-cyclohexanecarboxylic acid], the figure is under 100 nM; as for `COc1ccc(-c2cc(C(=O)N[C@]3(C(=O)O)CC[C@H](C(F)(F)F)CC3)cc(F)c2OC)cc1Cl` [Example 448, Cis-1-[(3′-Chloro-5-fluoro-6,4′-dimethoxy-biphenyl-3-carbonyl)-amino]-4-trifluoromethyl-cyclohexanecarboxylic acid], under 100 nM. Take `COc1ncc(-c2cc(C(=O)N[C@]3(C(=O)O)CC[C@@H](C)CC3)cc(F)c2OC)cc1Cl` [Example 449, 1-[3-(5-Chloro-6-methoxy-pyridin-3-yl)-5-fluoro-4-methoxy-benzoylamino]-4-methyl-cyclohexanecarboxylic acid]: the IC50 is 100 to 1000 nM. As for `CC[C@H]1CC[C@](NC(=O)c2cc(F)c(OC)c(-c3cnc(OC)c(Cl)c3)c2)(C(=O)O)CC1` [Example 450, 1-[3-(5-Chloro-6-methoxy-pyridin-3-yl)-5-fluoro-4-methoxy-benzoylamino]-4-ethyl-cyclohexanecarboxylic acid], the figure is under 100 nM.

Take `COc1ccc(-c2cncc(C(=O)N[C@]3(C(=O)O)CC[C@H](C(F)(F)F)CC3)c2)cc1Cl` [Example 451, 1-{[5-(3-Chloro-4-methoxy-phenyl)-pyridine-3-carbonyl]-amino}-4-trifluoromethyl-cyclohexanecarboxylic acid]: the IC50 was under 100 nM.

As for `C[C@H]1CC[C@@](NC(=O)c2ccc(C(F)(F)F)c(-n3ccc4ccccc43)c2)(C(=O)O)CC1` [Example 452, 1-(3-Indol-1-yl-4-trifluoromethyl-benzoylamino)-4-methyl-cyclohexanecarboxylic acid], the IC50 was 100 to 1000 nM. With `CC[C@H]1CC[C@](NC(=O)c2cncc(-c3ccc(OC)c(Cl)c3)c2)(C(=O)O)CC1` [Example 453, 1-{[5-(3-Chloro-4-methoxy-phenyl)-pyridine-3-carbonyl]-amino}-4-ethyl-cyclohexanecarboxylic acid] the figure was under 100 nM; with `Cc1cccc(CCOc2cc(C(=O)N[C@]3(C(=O)O)CC[C@H](C(F)(F)F)CC3)cc3c2OC(F)(F)O3)c1` [Example 454, Cis-1-{[2,2-Difluoro-7-(2-m-tolyl-ethoxy)-benzo[1,3]dioxole-5-carbonyl]-amino}-4-trifluoromethyl-cyclohexanecarboxylic acid], under 100 nM. As for `Cc1cccc(CCOc2cc(C(=O)NC3(C(=O)O)CCCCCC3)cc3c2OC(F)(F)O3)c1` [Example 455, 1-{[2,2-Difluoro-7-(2-m-tolyl-ethoxy)-benzo[1,3]dioxole-5-carbonyl]-amino}-cycloheptanecarboxylic acid], the figure is under 100 nM; as for `CC[C@H]1CC[C@](NC(=O)c2cc(OCCc3cccc(C)c3)c3c(c2)OC(F)(F)O3)(C(=O)O)CC1` [Example 456, Cis-1-{[2,2-Difluoro-7-(2-m-tolyl-ethoxy)-benzo[1,3]dioxole-5-carbonyl]-amino}-4-ethyl-cyclohexanecarboxylic acid], under 100 nM; as for `COc1ccc(C(=O)NC2(C(=O)O)CCCCCC2)cc1-c1cccc(C2COC2)c1` [Example 457, 1-[(6-Methoxy-3′-oxetan-3-yl-biphenyl-3-carbonyl)-amino]-cycloheptanecarboxylic acid], 100 to 1000 nM. With `CC[C@H]1CC[C@](NC(=O)c2ccc(OC)c(-c3cccc(C4COC4)c3)c2)(C(=O)O)CC1` [Example 458, Cis-4-Ethyl-1-[(6-methoxy-3′-oxetan-3-yl-biphenyl-3-carbonyl)-amino]-cyclohexanecarboxylic acid] the figure was under 100 nM; with `COc1ccc(C(=O)N[C@]2(C(=O)O)CC[C@H](C(F)(F)F)CC2)cc1-c1cccc(C2COC2)c1` [Example 459, 1-[(6-Methoxy-3′-oxetan-3-yl-biphenyl-3-carbonyl)-amino]-4-trifluoromethyl-cyclohexanecarboxylic acid], under 100 nM; with `COc1ccc(C(=O)N[C@]2(C(=O)O)CC[C@H](C(F)(F)F)CC2)cc1OCCc1cccc(C2COC2)c1` [Example 460, 1-{4-Methoxy-3-[2-(3-oxetan-3-yl-phenyl)-ethoxy]-benzoylamino}-4-trifluoromethyl-cyclohexanecarboxylic acid], 100 to 1000 nM.

Source of the values: US9018383B2, “Acylamino-substituted cyclic carboxylic acid derivatives and their use as pharmaceuticals” (Sanofi, priority 2009, dated 2015).
